Data published in patent US20240335439A1, “USE OF AND METHOD FOR TELAPREVIR IN PREPARATION OF DRUG FOR TREATING AN ISCHEMIA/REPERFUSION INJURY AND CYTOPROTECTIVE DRUG” (THE THIRD XIANGYA HOSPITAL OF CENTRAL SOUTH UNIVERSITY, priority 2021, published 2024).

Key:
SH-SY5Y nerve cells = experiment: NMDA induced nerve cell injury model of SH-SY5Y cells, MTS viability; assay type: cell-based; conditions: 1 mM NMDA 30 minutes, then 24 h culture; telaprevir 1, 5, 10 μM; FIG. 5C
Method: SH-SY5Y nerve cells were purchased from the Xiangya Cell Bank of Central South University.
Cell culture method: Following a conventional cell culture method, the above SH-SY5Y nerve cells were cultured in an RPMI 1640 medium (containing 20% of fetal bovine serum). When the cells fused and grew to 80-90%, the cells were digested with a trypsin. After the cells shrank and became round and the intercellular space was obvious, the digestion was immediately terminated with a medium, the cells were dispersed and blown evenly into a single suspension state, passaged in bottles, and cultured in a 37° C. cell incubator containing 5% of CO2.
The SH-SY5Y cells at the fusion rate of 80-90% or more can be seeded on plates. […]
Cell viability was detected by MTS.
The measurement followed the operating instructions of a commercially available MTS kit (Promega (Beijing) Biotech Co., Ltd.). […] The absorbance of the cells at 490 nm was measured by enzyme-linked immunosorbent assay (the absorbance was controlled at 0.7-1.2), where the absorbance value reflected relative cell viability. Calculation: cell viability (%)=absorbance of the drug group/absorbance of the control group×100%. When the absorbance value of each group was calculated, the absorbance value of the background blank control group was first subtracted.

[1] = test system: Alzheimer's disease mouse models; experiment: Alzheimer's disease mouse model (Aβ1-42 into hippocampus), new/old object recognition experiment; assay type: in vivo, ICR mice; conditions: telaprevir 40 mg/kg intramuscular daily for 17 days; ##P<0.01 vs vehicle group, FIG. 7
Method: Experimental animals: 7-week-old healthy male ICR mice weighing 25-30 g. The experimental animals were raised for one week in an environment with a temperature of 25° C., a relative humidity of 60%, free drinking water, and timed and quantified feeding, and then administered according to the requirements of each experimental group.
Building of an Alzheimer's disease mouse model and drug treatment: Aβ1-42 was purchased from MCE Reagent Company, dissolved in DMSO, diluted with physiological saline to 2 μg/μL, and incubated in an incubator at 37° C. for 7 days to convert the Aβ1-42 into an aggregated state. […]
A learning and memory ability and cognitive function of mice were detected by a Morris water maze experiment and a new/old object recognition experiment.
According to the requirements of the new/old object recognition experiment, the experiment included three stages: an adaptation period, a training period, and a testing period. […] One of the two objects was replaced with another object with a different shape and color (denoted as C), and the time for the experimental mice to probe the two different objects within 10 minutes was recorded. […]

Compound: CCC[C@H](NC(=O)[C@@H]1[C@H]2CCC[C@H]2CN1C(=O)[C@@H](NC(=O)[C@@H](NC(=O)c1cnccn1)C1CCCCC1)C(C)(C)C)C(=O)C(=O)NC1CC1 [telaprevir]
- cell viability (MTS) of NMDA treated SH-SY5Y cells (SH-SY5Y nerve cells): significantly inhibit a decrease
- cognitive index, new/old object recognition [1]: significantly increased
